In patent US8691757B2 (Bristol-Myers Squibb Company, priority 2011, dated 2014) one finds EC50 data, which are given here for nine molecules.

Assay [1] concerns HCV genotype 1b (Con1) replicon in HUH-7 cells. The assay is described as follows: HCV replicon luciferase reporter assay, genotype 1b. Format: cell-based. Conditions: Hepatitis C virus, 72 h, HCV genotype 1b replicon, 3 days incubation, Renilla luciferase. The source says:
An HCV replicon whole cell system was established as described by Lohmann V, Korner F, Koch J, Herian U, Theilmann L, Bartenschlager R., Science 285(5424):110-3 (1999) and modified to introduce a luciferase reporter, as first described by Krieger et al (Krieger N, Lohmann V, and Bartenschlager R, J. Virol. 75(10):4614-4624 (2001)). CDNA encoding a humanized form of the Renilla luciferase gene and a linker sequence fused directly to the 3′-end of the luciferase gene were introduced into the replicon construct using an Asc1 restriction site located in core, directly upstream of the neomycin marker gene. The adaptive mutation at position 1179 (serine to isoleucine) was also introduced (Blight K J, Kolykhalov, A A, Rice, C M, Science 290(5498):1972-1974). A stable cell line constitutively expressing this HCV replicon construct was generated by first linearizing plasmid DNAs with ScaI. RNA transcripts were synthesized in vitro using the T7 MegaScript transcription kit (Ambion, Austin, Tex.) according to manufacturer's directions. In vitro transcripts of the cDNA were transfected into the human hepatoma cell line, HUH-7. […] Resulting cell lines were characterized for positive and negative strand RNA production and protein production over time. […]
(§1) HCV replicon luciferase assays were developed to monitor the inhibitory effects of compounds described in the disclosure on HCV genotypes 1a and 1b viral replication. HUH-7 cells, constitutively expressing the HCV replicon, were grown in Dulbecco's Modified Eagle Media (DMEM) (Gibco-BRL) containing 10% Fetal calf serum (FCS) (Sigma) and 1 mg/mL G418 (Gibco-BRL). Compounds were serially diluted 3 folds in DMSO for a twenty-point titration and subsequently transferred to sterile 384-well tissue-culture treated plates (Corning cat #3571). The plates were then seeded with 50 μL of cells at a density of 3.0×10^3 cells/well in DMEM containing 4% FCS (final DMSO concentration at 0.5%). After 3 days incubation at 37° C., cells were analyzed for Renilla Luciferase activity using the EnduRen as substrate (Promega cat #E6485). The EnduRen substrate was diluted in DMEM and then added to the plates to a final concentration of 7.5 μM. The plates were incubated for 2 hrs at 37° C. and then read immediately for 30 seconds with Viewlux Imager (PerkinElmer) using a luminescence program. To assess cytotoxicity of compounds, CC50 values were generated by multiplexing the EnduRen-containing plates with Cell Titer-Blue (Promega, cat #G8082). Cell-Titer Blue (3 μL) was added to each well and incubated for 8 hrs at 37° C. The fluorescence signal from each well was read, with an excitation wavelength at 525/10 nm and an emission wavelength of 598/10 nm, using the Viewlux Imager.
(§2) The EC50 values for compounds were calculated by using a four-parameter logistic equation: y=A+((B−A)/(1+((C/x)^D))), where A and B denotes minimal and maximal % inhibition, respectively, C is the EC50, D is the hill slope and x represents compound concentration.
Background: In antiviral work, replicon cells carry a viral genome segment that copies itself.

In assay [2] the test system is HCV genotype 1a (H77 strain) replicon in HUH-7 cells. The experiment in a line: HCV replicon luciferase reporter assay, genotype 1a. It counts as cell-based. Conditions: Hepatitis C virus, 72 h, HCV genotype 1a replicon, 3 days incubation, Renilla luciferase.
Description: An HCV replicon whole cell system was established as described by Lohmann V, Korner F, Koch J, Herian U, Theilmann L, Bartenschlager R., Science 285(5424):110-3 (1999) and modified to introduce a luciferase reporter, as first described by Krieger et al (Krieger N, Lohmann V, and Bartenschlager R, J. Virol. 75(10):4614-4624 (2001)). CDNA encoding a humanized form of the Renilla luciferase gene and a linker sequence fused directly to the 3′-end of the luciferase gene were introduced into the replicon construct using an Asc1 restriction site located in core, directly upstream of the neomycin marker gene. The adaptive mutation at position 1179 (serine to isoleucine) was also introduced (Blight K J, Kolykhalov, A A, Rice, C M, Science 290(5498):1972-1974). A stable cell line constitutively expressing this HCV replicon construct was generated by first linearizing plasmid DNAs with ScaI. RNA transcripts were synthesized in vitro using the T7 MegaScript transcription kit (Ambion, Austin, Tex.) according to manufacturer's directions. In vitro transcripts of the cDNA were transfected into the human hepatoma cell line, HUH-7. […] Resulting cell lines were characterized for positive and negative strand RNA production and protein production over time.
A stable HCV replicon luciferase reporter cell line representing the genotype 1a H77 strain (Yanagi M, Purcell R H, Emerson S U, et al. Transcripts from a single full-length cDNA clone of hepatitis C virus are infectious when directly transfected into the liver of a chimpanzee. Proc Natl Acad Sci USA 1997; 94(16):8738-8743) was generated as described previously for the genotype 1b (Con1) replicon luciferase cell line. The replicon construct was modified by introducing mutations were introduced into the genes encoding the NS3 helicase domain (proline replaced by leucine at position 1496) and NS5A (serine to isoleucine at position 2204) to improve replication in cell culture.
as §1, §2

Turning to `COc1cnc(O[C@@H]2C[C@H]3C(=O)N[C@]4(C(=O)NS(=O)(=O)C5(C)CC5)C[C@H]4/C=C\[C@H](C)CCC[C@@H](C)[C@H](NC(=O)OC(C)(C)C(F)(F)F)C(=O)N3C2)c2cccc(Cl)c12` [Compound 25, 1,1,1-trifluoro-2-methylpropan-2-yl (2R,6S,7R,11R,13aS,14aR,16aS,Z)-2-(5-chloro-4-methoxyisoquinolin-1-yloxy)-7,11-dimethyl-14a-(1-methylcyclopropylsulfonylcarbamoyl)-5,16-dioxo-1,2,3,5,6,7,8,9,10,11,13a,14,14a,15,16,16a-hexadecahydrocyclopropa[e]pyrrolo[1,2-a][1,4]diazacyclopentadecin-6-ylcarbamate], the half-maximal effective concentration (EC50) fell in the range of 0.2 to 1 nM in assay [1] (range classes) and 1.01 to 2 nM in assay [2] (range classes).

As for `COc1cnc(O[C@@H]2C[C@H]3C(=O)N[C@]4(C(=O)NS(=O)(=O)C5(C)CC5)C[C@H]4/C=C\[C@H](C)CCC[C@@H](C)[C@H](NC(=O)OC(C)(C)C(F)(F)F)C(=O)N3C2)c2ccccc12` [Compound 35, 1,1,1-trifluoro-2-methylpropan-2-yl (2R,6S,7R,11R,13aS,14aR,16aS,Z)-2-(4-methoxyisoquinolin-1-yloxy)-7,11-dimethyl-14a-(1-methylcyclopropylsulfonylcarbamoyl)-5,16-dioxo-1,2,3,5,6,7,8,9,10,11,13a,14,14a,15,16,16a-hexadecahydrocyclopropa[e]pyrrolo[1,2-a][1,4]diazacyclopentadecin-6-ylcarbamate], the EC50 in assay [1] (numeric values) turned out to be 0.51 nM; in assay [2] (numeric values), 1.96 nM.

On to `COc1ccc2c(O[C@@H]3C[C@H]4C(=O)N[C@]5(C(=O)NS(=O)(=O)C6(CF)CC6)C[C@H]5/C=C\[C@H](C)CCC[C@@H](C)[C@H](NC(=O)OC(C)(C)C)C(=O)N4C3)ncc(OC)c2c1` [Compound 11, tert-butyl (2R,6S,7R,11R,13aS,14aR,16aS,Z)-2-(4,6-dimethoxyisoquinolin-1-yloxy)-14a-(1-(fluoromethyl)cyclopropylsulfonylcarbamoyl)-7,11-dimethyl-5,16-dioxo-1,2,3,5,6,7,8,9,10,11,13a,14,14a,15,16,16a-hexadecahydrocyclopropa[e]pyrrolo[1,2-a][1,4]diazacyclopentadecin-6-ylcarbamate], for which the EC50 in assay [1] (range classes) was in the range of 0.2 to 1 nM; in assay [2] (range classes) it was 2.01 to 5 nM.

`COc1ccc2nc(O[C@@H]3C[C@H]4C(=O)N[C@]5(C(=O)NS(=O)(=O)C6CC6)C[C@H]5/C=C\[C@@H](C)CCC[C@@H](C)[C@H](NC(=O)OC(C)(C)C)C(=O)N4C3)cnc2c1` [Compound 27, tert-butyl (2R,6S,7R,11S,13aS,14aR,16aS,Z)-14a-(cyclopropylsulfonylcarbamoyl)-2-(6-methoxyquinoxalin-2-yloxy)-7,11-dimethyl-5,16-dioxo-1,2,3,5,6,7,8,9,10,11,13a,14,14a,15,16,16a-hexadecahydrocyclopropa[e]pyrrolo[1,2-a][1,4]diazacyclopentadecin-6-ylcarbamate]: the EC50 in assay [1] (range classes) and in assay [2] (range classes) was 5.01 to 68 nM each time.

In the case of `COc1cc2c(OC)cnc(O[C@@H]3C[C@H]4C(=O)N[C@]5(C(=O)NS(=O)(=O)C6(C)CC6)C[C@H]5/C=C\[C@H](C)CCC[C@@H](C)[C@H](NC(=O)OC(C)(C)C(F)(F)F)C(=O)N4C3)c2cc1F` [Compound 15, 1,1,1-trifluoro-2-methylpropan-2-yl (2R,6S,7R,11R,13aS,14aR,16aS,Z)-2-(7-fluoro-4,6-dimethoxyisoquinolin-1-yloxy)-7,11-dimethyl-14a-(1-methylcyclopropylsulfonylcarbamoyl)-5,16-dioxo-1,2,3,5,6,7,8,9,10,11,13a,14,14a,15,16,16a-hexadecahydrocyclopropa[e]pyrrolo[1,2-a][1,4]diazacyclopentadecin-6-ylcarbamate], the half-maximal effective concentration (EC50) in assay [1] (range classes) and in assay [2] (range classes) was 1.01 to 2 nM in each case.

`COc1ccc2ncc(O[C@@H]3C[C@H]4C(=O)N[C@]5(C(=O)NS(=O)(=O)C6CC6)C[C@H]5/C=C\[C@@H](C)CCC[C@@H](C)[C@H](NC(=O)OC(C)(C)C)C(=O)N4C3)nc2c1` [Compound 29, tert-butyl (2R,6S,7R,11S,13aS,14aR,16aS,Z)-14a-(cyclopropylsulfonylcarbamoyl)-2-(7-methoxyquinoxalin-2-yloxy)-7,11-dimethyl-5,16-dioxo-1,2,3,5,6,7,8,9,10,11,13a,14,14a,15,16,16a-hexadecahydrocyclopropa[e]pyrrolo[1,2-a][1,4]diazacyclopentadecin-6-ylcarbamate]: the EC50 in assay [1] (range classes) and in assay [2] (range classes) was 5.01 to 68 nM throughout.

On to `COc1ccc2ncc(O[C@@H]3C[C@H]4C(=O)N[C@]5(C(=O)NS(=O)(=O)C6CC6)C[C@H]5/C=C\[C@H](C)CCC[C@@H](C)[C@H](NC(=O)OC(C)(C)C)C(=O)N4C3)nc2c1` [Compound 28, tert-butyl (2R,6S,7R,11R,13aS,14aR,16aS,Z)-14a-(cyclopropylsulfonylcarbamoyl)-2-(7-methoxyquinoxalin-2-yloxy)-7,11-dimethyl-5,16-dioxo-1,2,3,5,6,7,8,9,10,11,13a,14,14a,15,16,16a-hexadecahydrocyclopropa[e]pyrrolo[1,2-a][1,4]diazacyclopentadecin-6-ylcarbamate], for which the EC50 was 1.01 to 2 nM in assay [1] (range classes) and 5.01 to 68 nM in assay [2] (range classes).

For the molecule `COc1cnc(O[C@@H]2C[C@H]3C(=O)N[C@]4(C(=O)NS(=O)(=O)C5CC5)C[C@H]4/C=C\[C@H](C)CCC[C@@H](C)[C@H](NC(=O)OC(C)(C)C)C(=O)N3C2)c2cc(F)ccc12` [Compound 23, tert-butyl (2R,6S,7R,11R,13aS,14aR,16aS,Z)-14a-(cyclopropylsulfonylcarbamoyl)-2-(7-fluoro-4-methoxyisoquinolin-1-yloxy)-7,11-dimethyl-5,16-dioxo-1,2,3,5,6,7,8,9,10,11,13a,14,14a,15,16,16a-hexadecahydrocyclopropa[e]pyrrolo[1,2-a][1,4]diazacyclopentadecin-6-ylcarbamate], the EC50 in assay [1] (range classes) and in assay [2] (range classes) was 5.01 to 68 nM each time.

Consider `COc1ccc2ncc(O[C@@H]3C[C@H]4C(=O)N[C@]5(C(=O)NS(=O)(=O)C6CC6)C[C@H]5/C=C\[C@@H](C)CCC[C@@H](C)[C@H](NC(=O)OC(C)(C)C(F)(F)F)C(=O)N4C3)nc2c1` [Compound 31, 1,1,1-trifluoro-2-methylpropan-2-yl (2R,6S,7R,11S,13aS,14aR,16aS,Z)-14a-(cyclopropylsulfonylcarbamoyl)-2-(7-methoxyquinoxalin-2-yloxy)-7,11-dimethyl-5,16-dioxo-1,2,3,5,6,7,8,9,10,11,13a,14,14a,15,16,16a-hexadecahydrocyclopropa[e]pyrrolo[1,2-a][1,4]diazacyclopentadecin-6-ylcarbamate], for which the EC50 in assay [1] (range classes) and in assay [2] (range classes) was 5.01 to 68 nM throughout.

As usually defined, the EC50 is the concentration at which the effect is half-maximal.
